# In patent US20060148858A1, “1, 2-Azole derivatives with hypoglycemic and hypolipidemic activity” (priority 2002, published 2006):
# Experiments:
# PPARδ-RXRα heterodimer = target: T1, PPARδ-RXRα heterodimer (Homo sapiens, UniProt Q03181); assay: PPARδ-RXRα heterodimer ligand activity, luciferase reporter in COS-1 transformant (Test Example 4); assay type: cell-based; conditions: COS-1 transformant (hPPARδ, hRXRα, reporter), 36-48 hours, concentration for 50% of the maximum fold induction
# T1 construct: expressed in transfected cells; host or cells: COS-1
# T1 sequence (Q03181 1-441): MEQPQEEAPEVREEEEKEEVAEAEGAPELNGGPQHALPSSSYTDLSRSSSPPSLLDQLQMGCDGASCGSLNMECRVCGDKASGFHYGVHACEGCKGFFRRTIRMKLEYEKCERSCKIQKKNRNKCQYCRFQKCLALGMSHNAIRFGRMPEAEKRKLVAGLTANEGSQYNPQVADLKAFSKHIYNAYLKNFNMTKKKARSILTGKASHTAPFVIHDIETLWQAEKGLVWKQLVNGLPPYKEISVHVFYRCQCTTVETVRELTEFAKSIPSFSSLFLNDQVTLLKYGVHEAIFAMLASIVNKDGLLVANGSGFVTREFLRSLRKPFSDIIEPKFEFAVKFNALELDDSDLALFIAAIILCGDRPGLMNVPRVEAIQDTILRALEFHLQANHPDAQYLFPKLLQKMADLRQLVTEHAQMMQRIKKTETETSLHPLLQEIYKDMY
# T1 sequence (P19793 1-462 partner): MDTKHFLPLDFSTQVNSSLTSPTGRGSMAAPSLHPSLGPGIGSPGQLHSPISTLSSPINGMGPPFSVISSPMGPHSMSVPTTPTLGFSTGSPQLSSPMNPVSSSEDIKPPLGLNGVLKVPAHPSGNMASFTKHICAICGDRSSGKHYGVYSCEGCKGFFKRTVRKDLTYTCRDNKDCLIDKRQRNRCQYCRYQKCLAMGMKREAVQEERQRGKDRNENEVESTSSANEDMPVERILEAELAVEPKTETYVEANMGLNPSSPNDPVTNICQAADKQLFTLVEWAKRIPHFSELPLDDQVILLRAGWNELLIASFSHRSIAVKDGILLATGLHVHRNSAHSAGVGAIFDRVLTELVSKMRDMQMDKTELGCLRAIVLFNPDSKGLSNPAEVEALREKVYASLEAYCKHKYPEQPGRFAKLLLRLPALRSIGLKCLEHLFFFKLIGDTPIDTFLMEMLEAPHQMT
# How it was run: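 COS-1 cells transiently co-transfected with human PPARδ, human RXRα, PPRE-luciferase reporter and pRL-tk, then exposed to compound 36-48 h at 37 °C in DMEM with 0.1% fatty acid-free BSA. Luciferase read as fold induction over untreated; EC50 at 50% of maximal fold induction.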
SMILES,melting point [°C],EC50 (PPARδ-RXRα heterodimer) [nM]
"CCOc1nn(-c2ccc(C(F)(F)F)cn2)cc1CCCOc1cc(CCC(=O)O)n(-c2ccccc2)n1 [Example 42, 3-[3-(3-{3-ethoxy-1-[5-(trifluoromethyl)-2-pyridyl]-1H-pyrazol-4-yl}propoxy)-1-phenyl-1H-pyrazol-5-yl]propionic acid]",121 to 122,1.9
"CCCc1nn(-c2ccc(C(F)(F)F)cn2)cc1CCCCOc1cc(CCC(=O)O)n(-c2ccccc2)n1 [Example 58, 3-[1-phenyl-3-(4-{3-propyl-1-[5-(trifluoromethyl)-2-pyridinyl]-1H-pyrazol-4-yl}butoxy)-1H-pyrazol-5-yl]propanoic acid]",123 to 124,1.9
"CCCc1nn(-c2ccc(C(F)(F)F)cn2)cc1CCCOc1ccc(CCC(=O)O)c(OCC)c1 [Example 98, 3-[2-ethoxy-4-(3-{3-propyl-1-[5-(trifluoromethyl)-2-pyridinyl]-1H-pyrazol-4-yl}propoxy)phenyl]propanoic acid]",119 to 120,1.2
"CCOc1nn(-c2ccc(C(F)(F)F)cn2)cc1CCCCOc1cc(CCC(=O)O)n(-c2ccccc2)n1 [Example 104, 3-[3-(4-{3-ethoxy-1-[5-(trifluoromethyl)-2-pyridinyl]-1H-pyrazol-4-yl}butoxy)-1-phenyl-1H-pyrazol-5-yl]propanoic acid]",138 to 139,7
"O=C(O)CCc1cc(OCCCc2cn(-c3ccc(C(F)(F)F)cn3)nc2-c2ccccc2)nn1-c1ccccc1 [Example 125, 3-[1-phenyl-3-(3-{3-phenyl-1-[5-(trifluoromethyl)-2-pyridyl]-1H-pyrazol-4-yl}propoxy)-1H-pyrazol-5-yl]propionic acid]",175 to 176,1.5
"CCOc1nn(-c2ccc(C(F)(F)F)cn2)cc1CCCCOc1ccccc1CC(=O)O [Example 137, [2-(4-{3-ethoxy-1-[5-(trifluoromethyl)-2-pyridyl]-1H-pyrazol-4-yl}butoxy)phenyl]acetic acid]",109 to 110,9.6
"CCC(CC)c1nn(-c2ccc(C(F)(F)F)cn2)cc1CCCOc1c(C)cccc1CC(=O)O [Example 213, [2-(3-{3-(1-ethylpropyl)-1-[5-(trifluoromethyl)-2-pyridyl]-1H-pyrazol-4-yl}propoxy)-3-methylphenyl]acetic acid]",125 to 126,8.3
"COc1cccc(CC(=O)O)c1OCCCc1cn(-c2ccc(C(F)(F)F)nn2)nc1C(C)C [Example 274, [2-(3-{3-isopropyl-1-[6-(trifluoromethyl)pyridazin-3-yl]-1H-pyrazol-4-yl}propoxy)-3-methoxyphenyl]acetic acid]",92 to 93,320
"COc1ccc(CC(=O)O)cc1OCCCc1cn(-c2ccc(C(F)(F)F)cn2)nc1C1CCCCC1 [Example 304, [3-(3-{3-cyclohexyl-1-[5-(trifluoromethyl)-2-pyridinyl]-1H-pyrazol-4-yl}propoxy)-4-methoxyphenyl]acetic acid]",117 to 118,5.7
"COc1cccc(CC(=O)O)c1OCCCc1cn(-c2ccc(Cl)cn2)nc1C(C)C [Example 311, (2-{3-[1-(5-chloro-2-pyridinyl)-3-isopropyl-1H-pyrazol-4-yl]propoxy}-3-methoxyphenyl)acetic acid]",148 to 149,280

# Other lines, results leading:
melting point [°C],EC50 (PPARδ-RXRα heterodimer) [nM],SMILES
139 to 140,9.3,"CC(C)c1nn(-c2ccc(C(F)(F)F)cn2)cc1CCCOc1cc(CCC(=O)O)n(-c2ccccc2)n1 [Example 24, 3-[3-(3-{3-isopropyl-1-[5-(trifluoromethyl)-2-pyridyl]-1H-pyrazol-4-yl}propoxy)-1-phenyl-1H-pyrazol-5-yl]propionic acid]"
134 to 135,2.6,"CCOc1nn(-c2ccc(C(F)(F)F)cn2)cc1CCCOc1cccc(CC(=O)O)c1 [Example 30, [3-(3-{3-ethoxy-1-[5-(trifluoromethyl)-2-pyridyl]-1H-pyrazol-4-yl}propoxy)phenyl]acetic acid]"
83 to 84,9.6,"CCOc1nn(-c2ccc(C(F)(F)F)cn2)cc1CCCOc1ccccc1CC(=O)O [Example 31, (2-(3-{3-ethoxy-1-[5-(trifluoromethyl)-2-pyridyl]-1H-pyrazol-4-yl}propoxy)phenyl]acetic acid]"
149 to 150,3.7,"CCCc1nn(-c2ccc(C(F)(F)F)cn2)cc1CCCOc1cc(CCC(=O)O)n(-c2ccccc2)n1 [Example 43, 3-[1-phenyl-3-(3-{3-propyl-1-[5-(trifluoromethyl)-2-pyridyl]-1H-pyrazol-4-yl}propoxy)-1H-pyrazol-5-yl]propionic acid]"
104 to 105,0.6,"CCOc1nn(-c2ccc(C(F)(F)F)cn2)cc1CCCOc1ccc(CCC(=O)O)c(OC(C)C)c1 [Example 116, 3-[4-(3-{3-ethoxy-1-[5-(trifluoromethyl)-2-pyridinyl]-1H-pyrazol-4-yl}propoxy)-2-isopropoxyphenyl]propanoic acid]"
142 to 143,84,"COc1cccc(CC(=O)O)c1OCCCc1cn(-c2ccc(C(F)(F)F)cn2)nc1C(C)C [Example 181, [2-(3-{3-isopropyl-1-[5-(trifluoromethyl)-2-pyridyl]-1H-pyrazol-4-yl}propoxy)-3-methoxyphenyl]acetic acid]"
182 to 183,2.1,"O=C(O)CCc1cc(OCCCc2cn(-c3ccc(C(F)(F)F)cn3)nc2C2CCCCC2)nn1-c1ccccc1 [Example 189, 3-[3-(3-{3-cyclohexyl-1-[5-(trifluoromethyl)-2-pyridyl]-1H-pyrazol-4-yl}propoxy)-1-phenyl-1H-pyrazol-5-yl]propionic acid]"
134 to 135,1.2,"CCOc1ccc(CC(=O)O)cc1OCCCc1cn(-c2ccc(C(F)(F)F)cn2)nc1C1CCCCC1 [Example 201, [3-(3-{3-cyclohexyl-1-[5-(trifluoromethyl)-2-pyridyl]-1H-pyrazol-4-yl}propoxy)-4-ethoxyphenyl]acetic acid]"
100 to 101,42,"CCC(CC)c1nn(-c2ccc(C(F)(F)F)cn2)cc1CCCOc1c(CC(=O)O)cccc1OC [Example 212, [2-(3-{3-(1-ethylpropyl)-1-[5-(trifluoromethyl)-2-pyridyl]-1H-pyrazol-4-yl}propoxy)-3-methoxyphenyl]acetic acid]"
85 to 86,97,"CCC(CC)c1nn(-c2ccc(Cl)cn2)cc1CCCOc1c(CC(=O)O)cccc1OC [Example 223, (2-{3-[1-(5-chloro-2-pyridyl)-3-(1-ethylpropyl)-1H-pyrazol-4-yl]propoxy}-3-methoxyphenyl)acetic acid]"
155 to 156,54,"CCc1cccc(CC(=O)O)c1OCCCc1cn(-c2ccc(C(F)(F)F)cn2)nc1C(C)C [Example 227, [3-ethyl-2-(3-{3-isopropyl-1-[5-(trifluoromethyl)-2-pyridinyl]-1H-pyrazol-4-yl}propoxy)phenyl]acetic acid]"
145 to 146,6.1,"CCCc1nn(-c2ccc(C(F)(F)F)cn2)cc1CCCOc1c(Br)cccc1CC(=O)O [Example 237, [3-bromo-2-(3-{3-propyl-1-[5-(trifluoromethyl)-2-pyridinyl]-1H-pyrazol-4-yl}propoxy)phenyl]acetic acid]"
126 to 127,130,"CCc1cccc(CC(=O)O)c1OCCCc1cn(-c2ccc(C(F)(F)F)nn2)nc1C(C)C [Example 245, [3-ethyl-2-(3-{3-isopropyl-1-[6-(trifluoromethyl)pyridazin-3-yl]-1H-pyrazol-4-yl}propoxy)phenyl]acetic acid]"
184 to 185,9.9,"Cc1cccc(CC(=O)O)c1OCCCc1cn(-c2ccc(C(F)(F)F)cn2)nc1C1CCCCC1 [Example 316, [2-(3-{3-cyclohexyl-1-[5-(trifluoromethyl)-2-pyridinyl]-1H-pyrazol-4-yl}propoxy)-3-methylphenyl]acetic acid]"
134 to 135,5.1,"CCCc1nn(-c2ccc(C(F)(F)F)cn2)cc1CCCOc1c(C)cccc1CC(=O)O [Example 319, [3-methyl-2-(3-{3-propyl-1-[5-(trifluoromethyl)-2-pyridinyl]-1H-pyrazol-4-yl}propoxy)phenyl]acetic acid]"
